Assay: Flow Mediated Dilation (FMD) test
Settings: in vivo

With `O=[N+]([O-])OCC(CO[N+](=O)[O-])O[N+](=O)[O-]` [Nitroglycerin] the FMD reading was 10 % FMD and the blood vessel diameter was 5.3 mm.

— patent US11752088B2, “Highly concentrated seawater mineral extract and uses thereof” (Oriel Seasalt Company Limited, priority 2015, dated 2023)
